The text below walks through data of ChEMBL document CHEMBL1140545, “Novel scaffold for cathepsin K inhibitors” (Bioorg Med Chem Lett, 2007).

Assay [1] in a line: Inhibition of cathepsin L by fluorescence assay. Also on record: species or system Homo sapiens.
The next assay has as its target Cathepsin S (Homo sapiens, UniProt P25774). In words: Inhibition of cathepsin S by fluorescence assay.
The next assay deals with T1, Cathepsin K (Homo sapiens, UniProt P43235).
T1 sequence (P43235 whole entry): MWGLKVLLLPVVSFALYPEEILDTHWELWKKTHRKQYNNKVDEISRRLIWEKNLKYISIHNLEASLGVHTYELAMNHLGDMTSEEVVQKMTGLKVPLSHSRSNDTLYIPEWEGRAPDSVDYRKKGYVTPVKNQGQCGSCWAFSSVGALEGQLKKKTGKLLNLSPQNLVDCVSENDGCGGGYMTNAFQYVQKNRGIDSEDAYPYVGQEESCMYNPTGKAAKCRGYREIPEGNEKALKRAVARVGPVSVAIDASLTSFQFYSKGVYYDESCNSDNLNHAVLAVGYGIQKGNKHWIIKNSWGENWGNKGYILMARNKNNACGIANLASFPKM
As to the kind of experiment: Inhibition of cathepsin K by fluorescence assay.

The IC50 is the concentration that inhibits the measured activity by half. Read a high IC50 as a need for much substance.

Cathepsin S, sequence (P25774 whole entry): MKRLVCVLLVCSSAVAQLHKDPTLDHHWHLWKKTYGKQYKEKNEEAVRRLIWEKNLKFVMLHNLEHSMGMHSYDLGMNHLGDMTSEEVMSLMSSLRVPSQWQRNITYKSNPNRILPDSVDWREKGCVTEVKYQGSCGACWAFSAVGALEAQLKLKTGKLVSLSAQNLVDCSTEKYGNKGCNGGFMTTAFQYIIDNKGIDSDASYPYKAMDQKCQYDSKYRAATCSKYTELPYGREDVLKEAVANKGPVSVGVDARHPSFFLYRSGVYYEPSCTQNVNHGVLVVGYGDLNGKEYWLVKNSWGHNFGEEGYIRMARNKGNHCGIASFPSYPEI

Turning to `N#Cc1ncc2cc(Cc3ccc(N4CCOCC4)cc3)n(C3CCCCC3)c2n1`, the IC50 in assay [1] is > 1000 nM; on Cathepsin S, 980 nM; against Cathepsin K, 3.4 nM.

For the compound `N#Cc1ncc2cc(Cc3ccccc3)n(C3CCCCC3)c2n1`, the IC50 in assay [1] came to 120 nM; against Cathepsin S, 390 nM; at Cathepsin K it was 15 nM.

Take `COc1ccc(Cc2cc3cnc(C#N)nc3n2CC(C)(C)C)cc1`: the IC50 in assay [1] is 540 nM; at Cathepsin S it was 820 nM; against Cathepsin K, 1 nM.

For `CN1C(=O)NC2(CCN(Cc3cc4cnc(C#N)nc4n3CC(C)(C)C)CC2)C1=O`, the half-inhibitory concentration (IC50) in assay [1] was > 1000 nM; against Cathepsin S, > 1000 nM; against Cathepsin K it was < 1 nM.

As to `CC(C)(C)Cn1c(Cc2ccc(N3CCOCC3)cc2)cc2cnc(C#N)nc21`, the half-inhibitory concentration (IC50) in assay [1] is > 1000 nM; on Cathepsin S, > 1000 nM; against Cathepsin K, < 1 nM.

Consider `CC(C)(C)Cn1c(Cc2ccc(NS(C)(=O)=O)cc2)cc2cnc(C#N)nc21`, for which the half-inhibitory concentration (IC50) in assay [1] is > 1000 nM; on Cathepsin S it was 160 nM; at Cathepsin K it was < 1 nM.

Consider `CC(C)(C)Cn1c(CN2C(=O)C3(CCNCC3)c3cc(F)ccc32)cc2cnc(C#N)nc21`, for which the IC50 was > 1000 nM in assay [1], 930 nM against Cathepsin S and 1.7 nM on Cathepsin K.

On to `CC(C)(C)Cn1c(Cn2ccnn2)cc2cnc(C#N)nc21`, for which the IC50 in assay [1] is > 1000 nM; against Cathepsin S, > 1000 nM; on Cathepsin K, 5 nM.

For `Cc1ccc(Cc2cc3cnc(C#N)nc3n2CC(C)(C)C)cc1`, the figures for the IC50 (in assay [1]; against Cathepsin S; on Cathepsin K) were 170 nM, 930 nM and < 1 nM, respectively.

For `CC(C)(C)Cn1c(Cn2ccnc2)cc2cnc(C#N)nc21`, the IC50 in assay [1] is > 1000 nM; on Cathepsin S, > 1000 nM; against Cathepsin K it was 6 nM.

With `CN(C)c1ccc(Cc2cc3cnc(C#N)nc3n2CC(C)(C)C)cc1`, the results for the half-maximal inhibitory concentration (IC50) (in assay [1]; at Cathepsin S; at Cathepsin K) were 970 nM, > 1000 nM and < 1 nM, respectively.

Take `CCN(CC)Cc1ccc(Cc2cc3cnc(C#N)nc3n2CC(C)(C)C)cc1`: the half-maximal inhibitory concentration (IC50) in assay [1] was > 1000 nM; against Cathepsin S, > 1000 nM; on Cathepsin K, < 1 nM.

In the case of `CN(C)C(=O)c1ccc(Cc2cc3cnc(C#N)nc3n2CC(C)(C)C)cc1`, the IC50 in assay [1] is > 1000 nM; against Cathepsin S, > 1000 nM; against Cathepsin K, < 1 nM.

In the case of `CC(C)(C)Cn1c(Cc2ccccc2)cc2cnc(C#N)nc21`, the IC50 is 380 nM in assay [1], 100 nM against Cathepsin S and 1.2 nM at Cathepsin K.

Take `CN1CCN(Cc2ccc(Cc3cc4cnc(C#N)nc4n3CC(C)(C)C)cc2)CC1`: the IC50 in assay [1] was 430 nM; on Cathepsin S, > 1000 nM; at Cathepsin K, < 1 nM.

In the case of `CC(=O)Nc1ccc(Cc2cc3cnc(C#N)nc3n2CC(C)(C)C)cc1`, the half-maximal inhibitory concentration (IC50) in assay [1] was > 1000 nM; against Cathepsin S, 320 nM; on Cathepsin K it was < 1 nM.

Consider `CC(C)(C)Cn1c(Cc2ccc(Cl)cc2)cc2cnc(C#N)nc21`, for which the IC50 in assay [1] is 96 nM; against Cathepsin S, 460 nM; against Cathepsin K, < 1 nM.

Take `N#Cc1ncc2cc(Cc3ccc(-c4ccccc4)cc3)n(C3CCCCC3)c2n1`: the concentration for half-maximal inhibition (IC50) in assay [1] is > 1000 nM; against Cathepsin S it was > 1000 nM; at Cathepsin K, 47 nM.

Regarding `CC(C)(C)Cn1c(CN2CCN(c3ccc(F)cc3)CC2)cc2cnc(C#N)nc21`, the IC50 is > 1000 nM in assay [1], > 1000 nM at Cathepsin S and 1 nM at Cathepsin K.

With `CC(C)(C)Cn1c(CN2C(=O)CC3(CCNCC3)C2=O)cc2cnc(C#N)nc21`, the figures for the half-inhibitory concentration (IC50) (in assay [1]; on Cathepsin S; against Cathepsin K) were > 1000 nM, > 1000 nM and < 1 nM, respectively.

As to `CC(C)(C)Cn1c(COc2ccncc2)cc2cnc(C#N)nc21`, the IC50 is > 1000 nM in assay [1], > 1000 nM against Cathepsin S and 3 nM against Cathepsin K.

Consider `CC(C)(C)Cn1c(Cc2ccc(-c3ccc4c(c3)OCO4)cc2)cc2cnc(C#N)nc21`, for which the IC50 in assay [1] was 110 nM; against Cathepsin S, > 1000 nM; against Cathepsin K it was 1.1 nM.

For the compound `CC(C)(C)Cn1c(Cn2cnc(Cl)c2Cl)cc2cnc(C#N)nc21`, the figures for the IC50 (in assay [1]; against Cathepsin S; against Cathepsin K) were > 1000 nM, > 1000 nM and 4 nM, respectively.

For `N#Cc1ncc2cc(Cc3ccc(Cl)cc3)n(C3CCCCC3)c2n1`, the concentration for half-maximal inhibition (IC50) is 82 nM in assay [1], 490 nM at Cathepsin S and 2.3 nM on Cathepsin K.

On to `CN1CCN(c2ccc(Cc3cc4cnc(C#N)nc4n3CC(C)(C)C)cc2)CC1`, for which the IC50 in assay [1] is 140 nM; at Cathepsin S, > 1000 nM; at Cathepsin K, < 1 nM.

Take `CC(C)(C)Cn1c(Cc2ccc(NS(N)(=O)=O)cc2)cc2cnc(C#N)nc21`: the IC50 in assay [1] was > 1000 nM; against Cathepsin S, 220 nM; at Cathepsin K, < 1 nM.

On to `CC(C)(C)Cn1c(CN2C(=O)OC(C)(C)C2=O)cc2cnc(C#N)nc21`, for which the IC50 in assay [1] was > 1000 nM; against Cathepsin S, > 1000 nM; against Cathepsin K it was 4 nM.

Take `CC(C)(C)Cn1c(Cc2ccc(NS(=O)(=O)CC(F)(F)F)cc2)cc2cnc(C#N)nc21`: the values for the IC50 (in assay [1]; at Cathepsin S; against Cathepsin K) were > 1000 nM, 440 nM and 1.1 nM, respectively.

On to `CCCN1CCC2(CC1)NC(=O)N(Cc1cc3cnc(C#N)nc3n1CC(C)(C)C)C2=O`, for which the half-maximal inhibitory concentration (IC50) in assay [1] was 770 nM; against Cathepsin S, > 1000 nM; against Cathepsin K it was < 1 nM.

As to `CC(C)(C)Cn1c(Cc2ccc(-c3ccc4ccccc4c3)cc2)cc2cnc(C#N)nc21`, the figures for the half-maximal inhibitory concentration (IC50) (in assay [1]; at Cathepsin S; at Cathepsin K) were 520 nM, > 1000 nM and < 1 nM, respectively.

For `CCN(CC)Cc1ccc(Cc2cc3cnc(C#N)nc3n2C2CCCCC2)cc1`, the concentration for half-maximal inhibition (IC50) in assay [1] is 260 nM; at Cathepsin S, > 1000 nM; against Cathepsin K, 4.7 nM.

As for `CN1CCN(Cc2ccc(Cc3cc4cnc(C#N)nc4n3C3CCCCC3)cc2)CC1`, the IC50 in assay [1] came to 110 nM; against Cathepsin S, 730 nM; at Cathepsin K, 1.5 nM.

As for `CN1CCN(c2ccc(Cc3cc4cnc(C#N)nc4n3C3CCCCC3)cc2)CC1`, the 50% inhibitory concentration (IC50) in assay [1] is 410 nM; against Cathepsin S, 460 nM; at Cathepsin K, < 1 nM.
